Some results are limits rather than exact numbers.

Series [1] relates to IL-2 production from PMA and αCD3 antibody stimulated human PBMCs. Format: cell-based.
Series [2] relates to IFNγ production from PMA and αCD3 antibody stimulated human PBMCs. In kind it is cell-based.
In series [3] the test system is IL-2 production from αCD3 and αCD28 antibody stimulated human PBMCs. Format: cell-based.
Series [4] deals with IFNγ production from αCD3 and αCD28 antibody stimulated human PBMCs. In kind it is cell-based.
In series [5] the test system is adoptive transfer EAE model of multiple sclerosis. The settings on record: rat, in vivo, sc.
Series [6] deals with thapsigargin-induced IFN-g production in human whole blood. Format: cell-based.
The test system of series [7] is CD40L on CD4+ T cells in human whole blood. In kind it is cell-based.
The subject of series [8] is IL-2R on CD4+ T cells in human whole blood. In kind it is cell-based.
The conditions of series [9]: rat, in vivo, iv.
Series [10] has as its target human Kv1.3 channel (Homo sapiens, UniProt P22001). Format: cell-based.
Series [11] deals with T1, human Kv1.1 (Homo sapiens, UniProt Q09470).
T1 construct: expressed in transfected cells; host or cells: HEK293
In kind it is cell-based.

Series [12] relates to T cell proliferation in human PBMCs. Nature of the series: T cell proliferation (3H-thymidine incorporation) in anti-CD3/anti-CD28 stimulated human PBMCs. In kind it is cell-based. The settings on record: two normal donors. An excerpt:
Inhibition of T cell proliferation following anti-CD3 and anti-CD28 antibody stimulation of PBMCs. PBMC's were previously isolated from normal human donor Leukophoresis packs, purified by density gradient centrifugation (Ficoll Hypaque), cryopreserved in CPZ Cryopreservation Medium Complete (INCELL, MCPZF-100 plus 10% DMSO final). PBMC's were thawed (95% viability), washed, and seeded at 2×10^5 cells per well in culture medium (RPMI medium 1640; GIBCO) supplemented with 10% fetal calf serum, 100 U/ml penicillin, […] streptomycin, 2 mM L-glutamine, 100 μM non-essential amino acids, and 20 μM 2-ME) in 96-well flat-bottom tissue culture plates. Cells were pre-incubated with either anti-human CD32 (FcyRII) blocking antibody (per manufacturers instructions EASY SEP Human Biotin Selection Kit #18553, StemCell Technologies Vancouver, BC) or Fc-L10-ShK (100 nM-0.001 nM final) for 45 min. Fc-L10-ShK (100 nM-0.001 nM final) was then added to the cells containing anti-human CD32 blocking antibody while medium was added to the cells containing Fc-L10-ShK. Both sets were incubated for an additional 45 min before stimulating for 48 hr with aCD3/aCD28 (0.2 ng/ml and 100 ng/ml, respectively). Final assay volume was 200 ul. […] Cells were then harvested onto glass fiber filters and radioactivity was measured in a B-scintillation counter.
(In general: Uptake of a labelled nucleoside into DNA is a usual measure of proliferation.)

The target of series [13] is HEK 293 cells overexpressing human Kv1.3 (Homo sapiens, UniProt P22001). Kind of series: Immunohistochemistry binding to HEK 293 cells overexpressing human Kv1.3. The settings on record: 5 μg/ml. As for the experimental part: Immunohistochemistry analysis of Fc-L10-ShK[1-35] binding to HEK 293 cells overexpressing human Kv1.3. HEK 293 cells overexpressing human Kv1.3 (HEK Kv1.3) were obtained from BioFocus plc (Cambridge, UK) and maintained per manufacturer's recommendation. The parental HEK 293 cell line was used as a control. Cells were plated on Poly-D-Lysine 24 well plates (#35-4414; Becton-Dickinson, Bedford, Mass.) and allowed to grow to approximately 70% confluence. HEK KV1.3 were plated at 0.5×10e5 cells/well in 1 ml/well of medium. HEK 293 cells were plated at a density of 1.5×10e5 cells/well in 1 ml/well of medium. Before staining, cells were fixed with formalin (Sigma HT50-1-1 Formalin solution, diluted 1:1 with PBS/0.5% BSA before use) by removing cell growth medium, adding 0.2 ml/well formalin solution and incubating at room temperature for ten minutes. Cells were stained by incubating with 0.2 ml/well of 5 μg/ml Fc-L10-ShK[1-35] in PBS/BSA for 30′ at room temperature. Fc-L10-ShK[1-35] was aspirated and then the cells were washed one time with PBS/0.5% BSA. Detection antibody (Goat F(ab)2 anti-human IgG-phycoerythrin; Southern Biotech Associates, Birmingham, Ala.) was added to the wells at 5 μg/ml in PBS/0.5% BSA and incubated for 30′ at room temperature. Wash cells once with PBS/0.5% BSA and examine using confocal microscopy (LSM 510 Meta Confocal Microscope; Carl Zeiss AG, Germany). […]

Series [14] addresses fixed HEK 293 cells stably transfected with human Kv1.3 (Homo sapiens, UniProt P22001). Nature of the series: Whole cell immunoassay (ELISA) on fixed HEK 293 cells overexpressing Kv1.3. Format: binding. The procedure:
Our peptibody reagent can be a useful and convenient tool for monitoring Kv1.3 channel expression in patients and have utility in diagnostic applications. The procedure shown in FIG. 34A and FIG. 34B follows.
FIG. 34A. A whole cell immunoassay was performed to show binding of intact Fc-L10-ShK[1-35] to Kv1.3 transfected HEK 293 cells (BioFocus plc, Cambridge, UK). Parent HEK 293 cells or HEK Kv1.3 cells were plated at 3×10e4 cells/well in poly-D-Lysine coated ninety-six well plates (#35-4461; Becton-Dickinson, Bedford, Mass.). Cells were fixed with formalin (Sigma HT50-1-1 Formalin solution, diluted 1:1 with PBS/0.5% BSA before use) by removing cell growth medium, adding 0.2 ml/well formalin solution and incubating at room temperature for 25 minutes and then washing one time with 100 μl/well of PBS/0.5% BSA. Wells were blocked by addition of 0.3 ml/well of BSA blocker (50-61-00; KPL 10% BSA Diluent/Blocking Solution, diluted 1:1 with PBS; KPL, Gaithersburg, Md.) followed by incubation at room temperature, with shaking, for 3 hr. Plates were washed 2 times with 1×KP Wash Buffer (50-63-00; KPL). […] Absorbance was read at 450 nm on a Molecular Devices SpectroMax 340 (Sunnyvale, Calif.).
FIG. 34B. […] Absorbances were read at 405 nm after stopping reactions by addition of 0.1 ml/well of 1% SDS.
(An ELISA detects its analyte on a solid surface through an enzyme-linked reagent.)

Series [15] concerns thapsigargin-induced IL-2 production in human whole blood.

Chain of human Kv1.3 channel (P22001 whole entry): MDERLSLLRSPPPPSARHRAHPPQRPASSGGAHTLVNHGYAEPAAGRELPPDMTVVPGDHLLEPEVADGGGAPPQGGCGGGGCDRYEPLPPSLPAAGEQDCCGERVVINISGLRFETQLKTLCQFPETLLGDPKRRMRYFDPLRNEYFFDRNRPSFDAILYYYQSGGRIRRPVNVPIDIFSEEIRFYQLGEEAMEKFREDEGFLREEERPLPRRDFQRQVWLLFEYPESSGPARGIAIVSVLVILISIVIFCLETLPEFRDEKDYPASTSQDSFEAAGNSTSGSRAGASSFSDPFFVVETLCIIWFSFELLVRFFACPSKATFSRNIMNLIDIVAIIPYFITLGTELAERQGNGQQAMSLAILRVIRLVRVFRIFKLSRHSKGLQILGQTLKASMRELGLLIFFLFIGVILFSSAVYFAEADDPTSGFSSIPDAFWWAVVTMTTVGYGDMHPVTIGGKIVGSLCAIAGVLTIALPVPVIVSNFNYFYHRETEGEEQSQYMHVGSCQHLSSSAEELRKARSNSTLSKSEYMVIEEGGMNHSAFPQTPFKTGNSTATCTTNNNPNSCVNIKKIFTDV
T1 sequence (Q09470 whole entry): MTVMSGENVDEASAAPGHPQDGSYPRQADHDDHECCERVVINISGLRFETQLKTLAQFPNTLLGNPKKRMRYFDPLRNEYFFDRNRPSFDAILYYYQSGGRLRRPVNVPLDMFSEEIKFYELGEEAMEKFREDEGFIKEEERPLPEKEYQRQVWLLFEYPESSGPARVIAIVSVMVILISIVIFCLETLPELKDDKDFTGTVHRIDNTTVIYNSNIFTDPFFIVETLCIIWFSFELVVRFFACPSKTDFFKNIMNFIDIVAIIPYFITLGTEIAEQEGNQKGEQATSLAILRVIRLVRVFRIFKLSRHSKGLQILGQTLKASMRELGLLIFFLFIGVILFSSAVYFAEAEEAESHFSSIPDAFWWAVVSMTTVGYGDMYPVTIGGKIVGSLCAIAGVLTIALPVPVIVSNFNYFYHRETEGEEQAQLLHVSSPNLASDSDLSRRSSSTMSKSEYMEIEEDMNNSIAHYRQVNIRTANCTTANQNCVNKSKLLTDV
Chain of fixed HEK 293 cells stably transfected with human Kv1.3 (P22001 whole entry): as the sequence (P22001 whole entry) above
Chain of HEK 293 cells overexpressing human Kv1.3 (P22001 whole entry): as above

Consider `CC[C@H](C)[C@@H]1NC(=O)[C@@H](NC(=O)[C@H](CO)NC(=O)[C@@H](N)CCCNC(=N)N)CSSC[C@@H](C(=O)O)NC(=O)[C@H]([C@@H](C)O)NC(=O)CNC(=O)[C@@H]2CSSC[C@@H]3NC(=O)[C@H](CCC(N)=O)NC(=O)[C@H](Cc4ccccc4)NC(=O)[C@H](C)NC(=O)[C@H]([C@@H](C)O)NC(=O)[C@H](CSSC[C@H](NC(=O)[C@H](Cc4ccccc4)NC(=O)[C@H](CO)NC(=O)[C@H](CC(C)C)NC(=O)[C@H](CCCNC(=N)N)NC(=O)[C@H](Cc4ccc(O)cc4)NC(=O)[C@H](CCCCN)NC(=O)[C@H](CCSC)NC(=O)[C@H](CO)NC(=O)[C@H](Cc4cnc[nH]4)NC(=O)[C@H](CCCCN)NC3=O)C(=O)N[C@@H](CCCNC(=N)N)C(=O)N[C@@H](CCCCN)C(=O)N[C@@H]([C@@H](C)O)C(=O)N2)NC(=O)[C@H](CCCNC(=N)N)NC(=O)[C@H](CO)NC(=O)[C@H](CCCCN)NC(=O)[C@@H]2CCCN2C(=O)[C@H]([C@@H](C)CC)NC(=O)[C@H]([C@@H](C)O)NC(=O)[C@H](CC(=O)O)NC1=O` [ShK, reference compound], for which the “inhibition of IL-2 production (in words)” value in series [1] was “only a partial inhibition”. The “inhibition of IFNγ production (in words)” value in [2] is “only a partial inhibition”. Besides, the “inhibition of IL-2 production (in words)” value in series [3] is reported as “only partial inhibition”. Also, in series [4], the “inhibition of IFNg production (in words)” value was “only partial inhibition”. Further, in [5], the “average body weight lost” value stood at 30 g; the “disease severity and survival (in words)” value was “developed severe disease and died”; the “onset of disease” value was determined as 4 days. Moreover, the “thapsigargin-induced IFN-g production in human whole blood (in words)” value in series [6] is “suppressed”. The “thapsigargin-induced upregulation of CD40L on T cells (in words)” value in [7] is reported as “suppressed”. Moreover, the “thapsigargin-induced upregulation of IL-2R on T cells (in words)” value in series [8] is given as “suppressed”. The “time of significant suppression of Kv1.3 current (<70 POC) by 5% serum Test solutions” value in [9] was at most 1 h.

With “Fc-L10-OSK1[E16K,K20D]: Fc-L10-OSK1 with E16K and K20D substitutions”, in [10], the “difference in Kv1.3 potency compared to Fc-L10-OSK1” value worked out at 1.3 fold and the “fold less potent than the synthetic OSK1 toxin peptide (Kv1.3)” value was “approximately 6 fold”. Besides, the “blocking activity against Kv1.1 (in words)” value in series [11] is recorded as “removed the blocking activity against Kv1.1”.

On to “Fc-L10-ShK[1-35]: Fc region of human IgG1 fused in-frame to L10 linker and a monomer of ShK[1-35]”, for which, in series [10], the “block of human Kv1.3 current (in words)” value is “potently blocked human Kv1.3”. The “inhibition of IL-2 production (in words)” value in series [1] is reported as “complete inhibition of the response”; in [3] it was “nearly complete inhibition”. Further, in series [2], the “inhibition of IFNγ production (in words)” value is reported as “complete inhibition of the response”. Also, the “inhibition of IFNg production (in words)” value in series [4] was “nearly complete inhibition”. In addition, the “inhibition of T cell proliferation (in words)” value in [12] is reported as “potently inhibits proliferation of T cells in a dose-dependent manner”. In addition, the “binding to Kv1.3 overexpressing HEK 293 cells (staining)” value in [13] is “binds to Kv1.3 overexpressing HEK 293 cells but shows little binding to untransfected cells”. Besides, the “binding to fixed cells that overexpress Kv1.3 (ELISA)” value in [14] is reported as “dose-dependent increase in the peptibody binding to fixed cells that overexpress Kv1.3”. Moreover, the “thapsigargin-induced upregulation of CD40L on T cells (in words)” value in [7] is given as “suppressed”. Further, the “thapsigargin-induced upregulation of IL-2R on T cells (in words)” value in [8] is “suppressed”.

Consider “IbTx: BKCa channel inhibitor iberiotoxin, purchased from Bachem (QFTDVDCSVSKECWSVCKDLFGVDRGKCMGKKCRCYQ; Definition of Artificial Sequence: Synthetic peptide) [reference compound]”, for which the “thapsigargin-induced IFN-g production in human whole blood (in words)” value in series [6] was “no significant activity”. Also, the “thapsigargin-induced upregulation of CD40L on T cells (in words)” value in [7] was “no significant activity”. Moreover, in series [8], the “thapsigargin-induced upregulation of IL-2R on T cells (in words)” value is reported as “no significant activity”. The “thapsigargin-induced IL-2 production in human whole blood (in words)” value in series [15] is “no significant activity”.

The record behind these values is patent US7803769B2 (priority 2006, dated 2010).
